Patent publication US12637410B2, “Vesicular monoamine transporter-2 ligands and their use in the treatment of psychostimulant abuse” (priority 2016, dated 2026)
Read-outs that look alike come from different tables or passages of the source.

Assays:
[1] = test system: METH-stimulated locomotor activity; assay: METH-stimulated locomotor activity in rats; assay type: in vivo, rat; details: s.c.
Method: A series of VMAT2 inhibitors were synthesized and evaluated for their activity at VMAT2, dopamine transporters (DAT), and serotonin transporters (SERT) using rat striatum, hERG channels expressed by HEK-293 cells, and for their effect on METH-stimulated locomotor activity in rats.
The compounds of the invention were also evaluated for their effect on METH-stimulated locomotor activity in rats.

[2] = both, 0.08 µM, pH 7.4
Method: (§1) Each plate holds triplicate samples of two controls (0.4 mM) and up to 14 compounds (0.08 mM) in rat and human liver microsomes. Aliquots of each well of the plate (175 μl of each well) were transferred from the master plate into 5 assay plates. […] NADPH regenerating system solution A (6.05 ml, Fisher Scientific, #NC9255727) was combined with NADPH regenerating system solution B (1.21 ml, Fisher Scientific, #NC9016235) in potassium phosphate buffer (15.8 ml, 0.1 M, pH 7.4, 37° C.). The resulting NADPH solution (43.8 μl) was added to each well of all the 96-well assay plates and mixed with pipette briefly making the final protein and compound concentrations respectively: 0.5 mg/ml, 0.08 μM (0.4 μM for controls). Plates were sealed, and all plates except the 0-hr plate were incubated at 37° C., shaken at a speed of 60 rpm. A single assay plate was tested at each time point: 0.5 hr, 1 hr, 2 hr, and 4 hr. At each time point, 437.5 μL of pre-cooled internal standard was added each well of the plate to quench the reaction. […] 120 μl supernatant was transferred to a 96-well plate, centrifuged again and analyzed by UPLC-MS (Waters Inc., Milford, MA). The compounds and internal standard were detected by selected ion recording (SIR).
(§2) The amount of material was measured as a ratio of peak area to the internal standard and graphed. Using the slope from the initial linear portion of this curve, the degradation rate constant is calculated using equation [1]. The rate constant was then used to calculate the compounds half-life in plasma using equation [2].

VMAT2 = biological target: T1, VMAT2 (Rattus norvegicus, UniProt Q01827); assay: [3H]Dopamine ([3H]DA) uptake assay, vesicular preparation; assay type: biochemical
T1 construct: from tissue; host or cells: rat striatum, isolated synaptic vesicles
T1 sequence (Q01827 whole entry): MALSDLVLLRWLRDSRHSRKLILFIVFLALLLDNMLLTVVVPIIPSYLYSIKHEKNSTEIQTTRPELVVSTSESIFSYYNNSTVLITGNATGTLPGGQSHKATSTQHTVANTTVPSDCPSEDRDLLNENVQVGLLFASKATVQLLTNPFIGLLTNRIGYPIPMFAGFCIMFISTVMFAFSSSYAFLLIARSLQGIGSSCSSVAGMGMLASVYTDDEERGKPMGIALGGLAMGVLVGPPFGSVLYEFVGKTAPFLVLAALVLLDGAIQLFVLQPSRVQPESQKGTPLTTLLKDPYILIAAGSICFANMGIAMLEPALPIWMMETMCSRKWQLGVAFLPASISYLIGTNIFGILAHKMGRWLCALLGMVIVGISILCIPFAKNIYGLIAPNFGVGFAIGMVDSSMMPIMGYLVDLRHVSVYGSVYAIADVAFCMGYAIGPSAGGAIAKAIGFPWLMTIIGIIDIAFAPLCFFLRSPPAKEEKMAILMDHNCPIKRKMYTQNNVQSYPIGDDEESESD

[3] = Microsomal assays, rat liver microsomes; details: for Microsomal stability assays: Species/Half-life (hr) Rat: rat liver microsomes; for CLint scaled at 0.08 µM / half-life at 0.08 µM: female, Sprague-Dawley, rat, pH 7.4
Method: as §1, §2

[4] = Microsomal assays, human liver microsomes; details: for Microsomal stability assays: Species/Half-life (hr) Human: human liver microsomes; for half-life at 0.08 µM: both, human, pH 7.4
Method: as §1, §2

[5] = female, Sprague-Dawley, 0.08 µM, pH 7.4
Method: as §1, §2

[6] = Pharmacokinetic assays in mice (iv, po, sc); assay type: in vivo
hERG channel = biological target: T2, hERG channel (Homo sapiens, UniProt Q12809); assay: [3H]Dofetilide binding assay, HEK-293 cell membrane preparation; details: hERG Binding: Mean Ki (nM)
T2 construct: purchased; host or cells: HEK-293 cells stably expressing hERG (membranes)
T2 sequence (Q12809 whole entry): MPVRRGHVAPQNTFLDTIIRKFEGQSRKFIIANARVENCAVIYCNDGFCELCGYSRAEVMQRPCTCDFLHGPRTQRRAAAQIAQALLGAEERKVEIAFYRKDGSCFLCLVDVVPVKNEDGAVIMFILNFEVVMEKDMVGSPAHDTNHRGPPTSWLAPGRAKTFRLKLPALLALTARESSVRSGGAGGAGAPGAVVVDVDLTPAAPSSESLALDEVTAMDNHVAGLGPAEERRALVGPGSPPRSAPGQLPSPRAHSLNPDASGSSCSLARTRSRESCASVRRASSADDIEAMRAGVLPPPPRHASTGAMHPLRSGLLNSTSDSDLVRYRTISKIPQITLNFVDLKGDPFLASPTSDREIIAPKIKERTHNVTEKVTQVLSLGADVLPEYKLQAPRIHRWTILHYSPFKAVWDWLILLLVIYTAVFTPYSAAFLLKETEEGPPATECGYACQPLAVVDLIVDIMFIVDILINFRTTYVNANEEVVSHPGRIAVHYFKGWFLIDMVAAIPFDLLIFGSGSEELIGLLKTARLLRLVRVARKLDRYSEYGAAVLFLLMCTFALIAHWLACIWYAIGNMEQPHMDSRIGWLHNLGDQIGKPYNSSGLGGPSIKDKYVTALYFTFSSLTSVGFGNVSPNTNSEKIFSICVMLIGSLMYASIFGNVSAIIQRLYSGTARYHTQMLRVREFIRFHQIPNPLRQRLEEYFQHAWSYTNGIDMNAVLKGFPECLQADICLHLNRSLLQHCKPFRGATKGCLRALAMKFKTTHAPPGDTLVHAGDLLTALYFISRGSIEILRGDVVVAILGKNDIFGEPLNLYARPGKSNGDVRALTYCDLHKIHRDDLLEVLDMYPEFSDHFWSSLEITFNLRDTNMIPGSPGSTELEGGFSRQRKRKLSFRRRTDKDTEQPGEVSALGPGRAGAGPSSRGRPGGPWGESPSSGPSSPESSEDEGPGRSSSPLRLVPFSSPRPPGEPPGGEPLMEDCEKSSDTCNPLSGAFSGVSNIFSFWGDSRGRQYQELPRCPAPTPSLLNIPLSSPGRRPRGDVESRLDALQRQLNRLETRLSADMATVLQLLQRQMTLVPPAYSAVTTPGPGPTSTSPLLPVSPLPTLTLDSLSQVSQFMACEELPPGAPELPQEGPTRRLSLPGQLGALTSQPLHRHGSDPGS
Method: Membranes were suspended in assay buffer (50 mM Tris, 10 mM KCl, 1 mM MgCl2, pH 7.4) prior to the experiment. […] Nonspecific binding was determined in the presence of amitriptyline (1 mM). Samples were incubated for 1 hr. at 24° C., followed by rapid filtration.

[7] = Pharmacokinetic assays in rats (iv, po, sc); details: for Bioavail. (F %) Frat / bioavailability: rat; for bioavailability: male, Sprague-Dawley, in vivo
Method: (§3) Animals: Oral and intravenous dose pharmacokinetic studies were conducted in tandem in age matched female Swiss Webster mice and/or age matched male Sprague-Dawley rats purchased from Envigo-Harlan. Animals were housed in IVC cages with wood chip bedding and given food and water ad libitum.
(§4) Dose Formulation and Administration Volumes: Hydrochloric acid salts or free base forms were used for formulation.
(§5) Pharmacokinetic Studies: Groups of 6 animals were dosed with formulated test compound by bolus lateral tail vein injection (iv), by oral gavage (po), or by subcutaneous injection (sc) into left hind flank. […] Whole blood samples were collected into microtubes and centrifuged at 4000×g for 2 min. Plasma supernatants were collected and immediately frozen on dry ice, then transferred to a −80° C. freezer to await processing for LC-MS/MS analysis. Typical dose rates were 2 mg/kg iv, 10 mg/kg po, and <30 mg/kg sc.
(§6) Plasma calibrators (usually 0.25, 0.5, 1, 5, 15, 30, 100, 400, 700, and 1000 ng/mL) were generated by the addition of 5 μL of appropriate spiking solution into 100 μL blank plasma followed by vortex mixing. Plasma QC samples (usually 0.75, 25, 500, and 850 ng/mL) were prepared in a similar manner using an independent 2nd analyte stock solution. Calibrators and QCs were stored alongside experimental samples at −80° C. until analysis.
(§7) Analyte and internal standard contained in 5 μL sample injections (15° C. temp.; 1.5 mL 0.1% formic acid in MeOH or 1:1 MeOH: isopropanol injector rinse; 10 sec rinse dip time) were eluted from a guard-protected (2.7 μL, 3×5 mm) Agilent Poroshell 120 EC-C18 (2.7 μL, 3×50 mm; oven temp. 40° C.) analytical column with a 0.1% formic acid in water (mobile Phase-A): 0.1% formic acid in acetonitrile (mobile Phase-B) gradient. […] Positive-mode ESI Turbo V® source and MS gas, temperature, and probe settings were optimized for 0.4 mL flow rate at CUR=35/ISV=4500/TEM=550/GS1=65/GS2=65/CAD=10 with the probe position=7/0.5 horizontal/vertical. […] ISTD voltage potentials were set at DP=70, EP=10, CE=35 and CXP=6. Sample sequences consisted of single randomized experimental sample injections flanked by sets of blanks, calibrators and QCs with QCs interspersed, as needed, to maintain >5% total QC to experimental sample occurrence. High QCs (5,000 and 10,000 ng/mL) were inserted at end of sequence prior to second calibrator injections. Calibration curves were typically constructed by weighted (1/x^2) non-linear regression analysis of analyte/ISTD concentration ratios to analyte/ISTD peak area ratios using AB SciexMultiQuant software (Ver 3.0.31721.0).

[8] = biological target: dopamine transporter (DAT) (Rattus norvegicus, UniProt P23977); assay: [3H]DA uptake assay, synaptosomal preparation
Chain of dopamine transporter (DAT) (P23977 whole entry): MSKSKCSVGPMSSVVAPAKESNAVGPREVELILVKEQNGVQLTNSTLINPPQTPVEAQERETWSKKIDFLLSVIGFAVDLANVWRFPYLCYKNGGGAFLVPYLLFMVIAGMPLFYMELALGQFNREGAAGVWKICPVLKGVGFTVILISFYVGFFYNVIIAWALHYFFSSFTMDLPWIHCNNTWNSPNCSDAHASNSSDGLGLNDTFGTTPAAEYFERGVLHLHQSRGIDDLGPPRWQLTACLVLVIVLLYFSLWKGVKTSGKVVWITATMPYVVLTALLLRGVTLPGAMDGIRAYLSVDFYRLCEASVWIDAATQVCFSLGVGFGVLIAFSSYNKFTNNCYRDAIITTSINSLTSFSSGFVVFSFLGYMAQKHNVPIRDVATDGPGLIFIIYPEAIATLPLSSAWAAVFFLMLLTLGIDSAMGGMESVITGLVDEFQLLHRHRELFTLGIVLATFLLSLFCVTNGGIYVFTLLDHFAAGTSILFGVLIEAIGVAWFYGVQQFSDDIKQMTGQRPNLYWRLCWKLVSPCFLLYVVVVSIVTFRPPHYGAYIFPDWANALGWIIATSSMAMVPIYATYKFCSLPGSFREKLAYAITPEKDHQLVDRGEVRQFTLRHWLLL
Method: [^3H]DA and [3H]5-HT uptake into striatal synaptosomes was determined to evaluate compound inhibition of the dopamine transporter (DAT) and the serotonin transporter (SERT), respectively. […] Assays were performed in duplicate in a total volume of 500 μL (for DAT assays) or 250 μL (for SERT assays). Aliquots of the synaptosomal suspension (25 μL for DAT, 50 μL for SERT) were added to tubes containing assay buffer and various concentrations of analog (1 nM-100 μM), and incubated at 34° C. for 5 min. Nonspecific uptake was determined in the presence of nomifensine (10 μM) for DAT assays or fluoxetine (10 μM) for SERT assays. […] Samples were placed on ice, and 50 μL of 0.1 μM [^3H]DA (for DAT assays) or 25 μL of 0.1 μM [^3H]5-HT (for SERT assays) was added to each tube, and incubated for 10 min at 34° C. Reactions were terminated by addition of 3 mL of ice-cold assay buffer and subsequent filtration and radioactivity retained by the filters was determined by liquid scintillation spectrometry (Tri-Carb 2100TR liquid scintillation analyzer; PerkinElmer Life and Analytical Sciences, Boston, MA).

in vivo = details: male, Sprague-Dawley, rat
Method: as §3, §4, §5, §6, §7

in vitro [9] = details: both, human, pH 7.4
Method: as §1, §2

in vitro [10] = details: female, Sprague-Dawley, rat, pH 7.4
Method: as §1, §2

rat striatal slices = details: cited from earlier work
METH self-administration = details: in vivo; cited from earlier work
[11] = [3H]DA uptake, rat vesicular preparation, mean of n>=3 unless N given, read-out: VMAT2 (rat) Inhibition: Mean Ki
[12] = [3H]dofetilide binding, HEK-293 membranes, mean of n>=3 unless N given

COc1ccc(CCCN[C@H](C)Cc2ccccc2)cc1.Cl [Compound 9]
METH-stimulated locomotor activity ([1]; 3 mg/kg): significant reduction

COc1ccc(CCCN[C@@H](C)Cc2ccccc2)cc1.Cl [Compound 10, (S)-3-(4-methoxyphenyl)-N-(1-phenylpropan-2-yl)propan-1-amine]
METH-stimulated locomotor activity ([1]; 17 mg/kg): significant reduction

FCC(Cc1ccc(-c2cncnc2)cc1)NCCCc1ccc(F)cc1 (stereo not drawn) [Compound 68]
Microsomal stability assays: Species/Half-life (hr) Human [2]: 0.1 h
Ki (VMAT2): 0.005 µM

O=[N+]([O-])c1ccc(CCCNC(CF)Cc2ccc(F)cc2)cc1 (stereo not drawn) [Compound 123]
Microsomal stability assays: Species/Half-life (hr) Rat [3]: 0.4 h
Microsomal stability assays: Species/Half-life (hr) Human [4]: 1.2 h
Ki (VMAT2; [11]): 0.044 µM

OCC(Cc1ccc(F)cc1)NCCCc1ccc(Br)cc1 (stereo not drawn) [Compound 154]
Microsomal stability assays: Species/Half-life (hr) Rat [5]: 0.1 h

CC(Cc1ccc(F)cc1)NCCCc1ccncc1 (stereo not drawn) [Compound 176]
Bioavail. (F %) Fmice [6]: Fmice: ~22% (prelim rat done)
Ki (hERG channel; [12]): 5100 nM

CC(Cc1ccncc1)NCCCc1ccc(F)cc1 (stereo not drawn) [Compound 187]
Bioavail. (F %) Fmice [6]: Fmice: 9.4%
half-life at 0.08 µM [4]: > 240 min

CC(Cc1ccc(F)cc1)NCCCc1ccc(F)cc1 (stereo not drawn) [Compound 190]
Bioavail. (F %) Fmice [6]: Fmice: 5%
Ki (VMAT2): 0.009 µM

CC(Cc1ccc(-c2cccnc2)cc1)NCCCc1ccc(F)cc1 (stereo not drawn) [Compound 192]
Bioavail. (F %) Fmice [6]: Fmice: 6.7%

CC(Cc1ccccc1)NCCCc1ccc(C(F)(F)F)cc1 (stereo not drawn) [Compound 194]
Bioavail. (F %) Fmice [6]: Fmice: 11.9%

CC(Cc1ccc(-c2cncnc2)cc1)NCCCc1ccc(F)cc1 (stereo not drawn) [Compound 196]
Bioavail. (F %) Fmice [6]: Fmice: 3.4% (prelim rat done)
Ki (VMAT2): 0.008 µM

CC(Cc1ccccc1)NCCCc1ccncc1 (stereo not drawn) [Compound 204]
Bioavail. (F %) Fmice [6]: Fmice: 10% (prelim rat done)

CCC(Cc1ccccc1)NCCCc1ccc(O)cc1 (stereo not drawn) [Compound 207]
Microsomal stability assays: Species/Half-life (hr) Rat [3]: Rat: 0.1 hr Human: 0.1 hr
Microsomal stability assays: Species/Half-life (hr) Human [4]: Rat: 0.1 hr Human: 0.1 hr

CC(Cc1ccc(C(F)(F)F)cc1)NCCCc1ccc(O)cc1 (stereo not drawn) [Compound 209]
Microsomal stability assays: Species/Half-life (hr) Rat [3]: 0.2 h
Microsomal stability assays: Species/Half-life (hr) Human [4]: 0.1 h

CC(Cc1ccccc1)NCCCc1ccc(S)cc1 (stereo not drawn) [Compound 216]
Bioavail. (F %) Fmice [6]: Fmice: 0.9%
Microsomal stability assays: Species/Half-life (hr) Rat ([3]; cell prints %): Rat: 0.3%

CC(Cc1ccccc1)NCCCc1ccc(N)cc1 (stereo not drawn) [Compound 220]
Bioavail. (F %) Fmice [6]: Fmice: quant; Frat: quant
Bioavail. (F %) Frat [7]: Fmice: quant; Frat: quant

CC(Cc1ccccc1)NCCCc1ccc(O)cc1 (stereo not drawn) [Compound 223]
Bioavail. (F %) Fmice [6]: Fmice: 8.9%

CC(Cc1ccc(F)c(F)c1)NCCCc1ccc2nonc2c1 (stereo not drawn) [Compound 227]
Bioavail. (F %) ([7]; species not given): No detection
Ki (hERG channel; [12]): 650 nM
Ki (VMAT2): 0.049 µM

CC(Cc1ccc(F)c(F)c1)NCCCc1ccc2nc[nH]c2c1 (stereo not drawn) [Compound 228]
bioavailability ([7]; po, 10 mg/kg): 6%
Bioavail. (F %) Frat [7]: Frat: 5%
CLint scaled at 0.08 µM [3]: 48 mL/min/kg
Ki [8]: 3.04 µM
Ki (hERG channel; Table 4, mean, minimally n = 3): 6770 nM
Ki (hERG channel; [12]): 6770 nM
Ki (VMAT2): 0.041 µM

CC(Cc1ccc(F)c(F)c1)NCCCc1ccc(NC(N)=O)cc1 (stereo not drawn) [Compound 229]
bioavailability (in vivo; po): 94%
Bioavail. (F %) Frat [7]: Frat: 22%
CLint scaled at 0.08 µM [3]: 41 mL/min/kg
Ki [8]: 1.53 µM
Ki (hERG channel; Table 4, mean, minimally n = 3): 4290 nM
Ki (hERG channel; [12]): 4290 nM
Ki (VMAT2): 0.036 µM

CC(Cc1ccc(F)c(F)c1)NCCCc1ccc(S(N)(=O)=O)cc1 (stereo not drawn) [Compound 230]
bioavailability (in vivo; po): 94%
bioavailability (in vivo; sc): 44%
Bioavail. (F %) Frat [7]: Frat: >100%
CLint scaled at 0.08 µM [3]: < 17 mL/min/kg
Ki [8]: 8.24 µM
Ki (hERG channel; Table 4, mean, minimally n = 3): 1030 nM
Ki (hERG channel; [12]): 1030 nM
Ki (VMAT2): 0.042 µM

CC(Cc1ccc(F)c(F)c1)NCCCc1ccc(C(N)=O)cc1 (stereo not drawn) [Compound 231]
bioavailability ([7]; po, 10 mg/kg): 62%
bioavailability ([7]; sc): 84%
Bioavail. (F %) Frat [7]: Frat: 80%
CLint scaled at 0.08 µM [3]: 23 mL/min/kg
Ki [8]: 2.75 µM
Ki (hERG channel; Table 4, mean, minimally n = 3): 3500 nM
Ki (hERG channel; [12]): 3500 nM
Ki (VMAT2; [11]): 0.029 µM

CC(Cc1ccc(F)c(F)c1)NCCCc1cccc(NC(N)=O)c1 (stereo not drawn) [Compound 235]
bioavailability (in vivo; po): 8%
CLint scaled at 0.08 µM [3]: 71 mL/min/kg
Ki [8]: 1.29 µM
Ki (hERG channel; Table 4, mean, minimally n = 3): 4380 nM
Ki (hERG channel; [12]): 4380 nM
Ki (VMAT2): 0.004 µM

CC(Cc1ccc(F)c(F)c1)NCCCc1cccc(C(N)=O)c1 (stereo not drawn) [Compound 237]
bioavailability ([7]; po, 10 mg/kg): 2%
CLint scaled at 0.08 µM [3]: 30 mL/min/kg
Ki [8]: 3.12 µM
Ki (hERG channel; Table 4, mean, minimally n = 3): 4780 nM
Ki (hERG channel; [12]): 4780 nM
Ki (VMAT2; [11]): 0.032 µM

CC(Cc1ccccc1)NCCCc1ccc(F)cc1 (stereo not drawn) [Compound 249]
Bioavail. (F %) Fmice [6]: Fmice: 2.0%
half-life at 0.08 µM [3]: 18 min
half-life at 0.08 µM [4]: 72 min
Ki (hERG channel; [12]): 3000 nM
Ki (VMAT2): 0.006 µM

CC(Cc1ccccc1)NCCCc1ccc(OC(F)(F)F)cc1 (stereo not drawn) [Compound 258]
half-life at 0.08 µM [4]: > 240 min
Ki (hERG channel; [12]): 90 nM
Ki (VMAT2): 0.016 µM

CC(Cc1ccccc1)NCCCc1ccc(S)cc1 (stereo not drawn) [Compound 260]
Bioavail. (F %) Fmice [6]: Fmice: 0.9%

CC(Cc1ccc(F)cc1)NCCCc1ccc(CN)cc1 (stereo not drawn) [Compound 285]
half-life at 0.08 µM [3]: > 240 min
half-life at 0.08 µM [4]: > 240 min
Ki (VMAT2): 0.461 µM

Fc1ccc(CCCNC(Cc2ccccc2)Cc2ccccc2)cc1 [Compound 292]
half-life at 0.08 µM (in vitro [9]): 36 min
half-life at 0.08 µM (in vitro [10]): < 6 min
Ki (VMAT2): 0.346 µM

CC(Cc1ccc(F)cc1)NC(=O)CCc1ccc([N+](=O)[O-])cc1 (stereo not drawn) [Compound 293]
half-life at 0.08 µM (in vitro [9]): 24 min
half-life at 0.08 µM (in vitro [10]): 30 min
Ki (VMAT2): 10.8 µM

CC(Cc1ccc(F)cc1)NC(=O)CCc1ccc(C#N)cc1 (stereo not drawn) [Compound 294]
half-life at 0.08 µM [3]: 48 min
half-life at 0.08 µM [4]: 48 min
Ki (VMAT2): 40.6 µM

CC(Cc1cccc(NC(N)=O)c1)NCCCc1ccc(F)cc1 (stereo not drawn) [Compound 306]
CLint scaled at 0.08 µM [3]: 47 mL/min/kg
Ki [8]: 2.97 µM
Ki (hERG channel; Table 4, mean, minimally n = 3): 2750 nM
Ki (VMAT2): 0.009 µM

CC(Cc1ccc2nccnc2c1)NCCCc1ccc(C(N)=O)cc1 (stereo not drawn) [Compound 307]
bioavailability (in vivo; po): 8%
bioavailability (in vivo; sc): > 100%
CLint scaled at 0.08 µM [3]: 51 mL/min/kg
Ki [8]: 8.89 µM
Ki (hERG channel; Table 4, mean, minimally n = 3): 21000 nM
Ki (VMAT2): 0.017 µM

CC(Cc1ccc2nccnc2c1)NCCCc1ccc(F)cc1 (stereo not drawn) [Compound 308]
CLint scaled at 0.08 µM [3]: 56 mL/min/kg
Ki [8]: 2.93 µM
Ki (hERG channel; Table 4, mean, minimally n = 3): 1900 nM
Ki (VMAT2): 0.013 µM

CC(Cc1cccc(F)c1)NCCCc1ccc(C(N)=O)cc1 (stereo not drawn) [Compound 309]
bioavailability ([7]; po, 10 mg/kg): 5%
bioavailability ([7]; sc): 76%
CLint scaled at 0.08 µM [3]: 57 mL/min/kg
Ki [8]: 1.63 µM
Ki (hERG channel; Table 4, mean, minimally n = 3): 12000 nM
Ki (VMAT2; Table 4, mean, minimally n = 3, read-out: VMAT2 (rat) Inhibition: Mean Ki): 0.006 µM

CC(Cc1cccc(N)c1)NCCCc1ccc(F)cc1 (stereo not drawn) [Compound 310]
CLint scaled at 0.08 µM [3]: 74 mL/min/kg
Ki [8]: 2.23 µM
Ki (hERG channel; Table 4, mean, minimally n = 3): 2730 nM
Ki (VMAT2): 0.005 µM

CC(Cc1ccc(F)c(F)c1)NCCCc1ccc2cnoc2c1 (stereo not drawn) [Compound 311]
CLint scaled at 0.08 µM [3]: 117 mL/min/kg
Ki [8]: 2.72 µM
Ki (hERG channel; Table 4, mean, minimally n = 3): 4200 nM
Ki (VMAT2): 0.051 µM

CC(Cc1ccc(F)c(F)c1)NCCCc1ccc2nn[nH]c2c1 (stereo not drawn) [Compound 312]
bioavailability ([7]; po, 10 mg/kg): 7%
bioavailability ([7]; sc): 42%
CLint scaled at 0.08 µM [3]: 115 mL/min/kg
Ki [8]: 1.9 µM
Ki (hERG channel; Table 4, mean, minimally n = 3): 3000 nM
Ki (VMAT2): 0.008 µM

COc1ccc(CCCN[C@@H](C)Cc2ccccc2)cc1 [Compound 313]
Bioavail. (F %) Frat ([7]; route not stated): Frat: 3.4%
CLint scaled at 0.08 µM [3]: 978 mL/min/kg
half-life at 0.08 µM [3]: < 6 min
Ki (hERG channel; Table 4, mean, minimally n = 3): 4160 nM
Ki (VMAT2): 0.072 µM

CN1[C@@H](CCc2ccccc2)CCC[C@H]1CCc1ccccc1 [Lobelane]
METH-evoked DA overflow (rat striatal slices): decreases METH-evoked DA overflow
METH self-administration (METH self-administration): decreases METH self-administration
